The text below walks through data of patent US6946464B2, “Methods of treating and preventing a convulsive state” (Sepracor Inc., priority 1999, dated 2005).

pIC50, pKi: −log10 of the molar value.

What is called pIC50 is −log10 of the IC50, conventionally taken in molar units. Broadly, the pKi is the negative decadic logarithm of the Ki, by convention in mol/L.

The conditions of data set [1]: as reported by Goa and Heel, Drugs 32:48-65 (1986); cited from earlier work.
The conditions of data set [2]: healthy humans; cited from earlier work.
Data set [3] addresses central benzodiazepine receptor. The data set is described as follows: Binding at the central benzodiazepine receptor (competition of specific binding). The following applies: rat cerebral cortex; for pIC50: 10 concentrations in duplicate, nonlinear regression; for pKi: inhibition constant calculated from competition curves. Here is the method:
(§1) The binding of N-desmethylzopiclone was determined at the central benzodiazepine receptor and at the non-selective muscarinic receptor, both of which were isolated from rat cerebral cortex. Compounds were tested initially at 10 μM in duplicate, and if at least a 50% inhibition of specific binding was observed, they were tested further at 10 different concentrations in duplicate in order to obtain full competition curves. IC50 values (concentration required to inhibit 50% specific binding) were determined by nonlinear regression analysis of the curves, and inhibition constants (Ki) were also calculated.

Data set [4] relates to non-selective muscarinic receptor. The data set is described as follows: Binding at the non-selective muscarinic receptor. The conditions noted are these: rat cerebral cortex; tested at 10 μM in duplicate. Here is the method: as §1

With `C[N+]1([O-])CCN(C(=O)O[C@H]2c3nccnc3C(=O)N2c2ccc(Cl)cn2)CC1` [N-oxidezopiclone, reference compound], the reported pharmacological activity result in data set [1] is on record as “less active than zopiclone”. Besides, the “share of an oral dose of racemic zopiclone accounted for by the metabolite” value in data set [2] is listed as 11%.
For the compound `O=C(O[C@@H]1c2nccnc2C(=O)N1c1ccc(Cl)cn1)N1CCNCC1` [(−)-N-desmethylzopiclone], in data set [3], the negative logarithm of the IC50 (pIC50) was 5.15 and the pKi was 5.22. In addition, the “Muscarinic (% Inhibition)” value in data set [4] is 24%.
For `O=C(OC1c2nccnc2C(=O)N1c1ccc(Cl)cn1)N1CCNCC1` (racemic) [(±)-N-desmethylzopiclone] the same measures were 5.96, 6.03 and 10%.
`CN1C(=O)CN=C(c2ccccc2)c2cc(Cl)ccc21` [Diazepam, reference compound]: in data set [3], the pIC50 is 7.92 and the pKi is 8.00.
For `O=C(O[C@H]1c2nccnc2C(=O)N1c1ccc(Cl)cn1)N1CCNCC1` [N-desmethylzopiclone], the reported pharmacological activity result in data set [1] was “inactive”. The “share of an oral dose of racemic zopiclone accounted for by the metabolite” value in data set [2] is on record as 15%.
With `O=C(O[C@H]1c2nccnc2C(=O)N1c1ccc(Cl)cn1)N1CCNCC1` [(+)-N-desmethylzopiclone], in data set [3], the pIC50 was 6.26 and the pKi was 6.34. Besides, the “Muscarinic (% Inhibition)” value in data set [4] is on record as 19%.
